Laboratory results taken from ChEMBL document CHEMBL4138293, “Modified Abietane Diterpenoids from Whole Plants of Selaginella moellendorffii” (J Nat Prod, 2018).
The source made the active and inactive calls. The rule behind the calls is not given here.

How the values were obtained:
Assay type in all cases: functional, cell-based
SW480 = assay: Growth inhibition of human SW480 cells after 48 hrs by MTS assay
A549 = assay: Growth inhibition of human A549 cells after 48 hrs by MTS assay
HL-60 = assay: Growth inhibition of human HL60 cells after 48 hrs by MTS assay
SMMC-7721 = assay: Growth inhibition of human SMMC7721 cells after 48 hrs by MTS assay
MCF7 = assay: Growth inhibition of human MCF7 cells after 48 hrs by MTS assay

Structure (SMILES)	growth inhibition (GI) (SW480)	growth inhibition (GI) (A549)	growth inhibition (GI) (HL-60)	growth inhibition (GI) (SMMC-7721)	IC50 (MCF7; MCF7, 48 h) [µM]	IC50 (SW480; SW480, 48 h) [nM]	IC50 (HL-60; HL-60, 48 h) [nM]	IC50 (SMMC-7721; SMMC-7721, 48 h) [nM]	growth inhibition (GI) (MCF7)
C=C1[C@@H]2CC(=O)c3cc(C(C)C)c(O)cc3[C@@]2(C)CC(=O)[C@]12CCC1=C(C2)[C@@H]2CC(=O)c3cc(C(C)C)c(O)cc3[C@@]2(C)C[C@@H]1O	inactive	inactive	inactive	inactive	9				
CC(=O)O[C@H]1C(=O)[C@@]2(C)[C@H]([C@H](OC(=O)c3ccccc3)[C@]3(O)C[C@H](OC(=O)[C@H](O)[C@@H](NC(=O)c4ccccc4)c4ccccc4)C(C)=C1C3(C)C)[C@]1(OC(C)=O)CO[C@@H]1C[C@@H]2O [PACLITAXEL]						< 8	< 8	< 8	
C=C1[C@@H]2CC(=O)c3cc(C(C)C)c(O)cc3[C@@]2(C)CC(=O)[C@]12CCC1=C(C2)C2=CC(=O)c3cc(C(C)C)c(O)cc3[C@@]2(C)C[C@@H]1O	inactive	inactive	inactive	inactive					inactive
CC(C)c1cc2c(cc1O)[C@@]1(C)CC[C@](C)(O)[C@@](O)(CO)[C@@H]1CC2=O	inactive	inactive	inactive	inactive					inactive
